Results reported in ChEMBL document CHEMBL1144730, “Novel antibacterial azetidine lincosamides” (Bioorg Med Chem Lett, 2008).
≈ marks a conversion by molar mass, not a printed value.

Assays:
Assay type in all cases: functional
Bacteroides fragilis = test: Antibacterial activity against Bacteroides fragilis by broth microdilution method
Enterococcus faecalis = test: Antibacterial activity against Enterococcus faecalis by broth microdilution method
Staphylococcus aureus [1] = test: Antibacterial activity against macrolide, licosamide and streptogramin resistant Staphylococcus aureus by broth microdilution method
Streptococcus pneumoniae = test: Antibacterial activity against Streptococcus pneumoniae by broth microdilution method
Enterococcus faecium = test: Antibacterial activity against Enterococcus faecium by broth microdilution method
Staphylococcus aureus [2] = test: Antibacterial activity against Staphylococcus aureus by broth microdilution method
Staphylococcus aureus [3] = test: Antibacterial activity against Staphylococcus aureus Smith infected iv dosed mouse septicemia model
Escherichia coli = test: Inhibition of protein synthesis in Escherichia coli by transcription/translation inhibition assay
Staphylococcus aureus [4] = test: Antibacterial activity against Staphylococcus aureus Smith infected po dosed mouse septicemia model

| Compound | MIC (Bacteroides fragilis) [µg/mL] | MIC (Enterococcus faecalis) [µg/mL] | MIC (Staphylococcus aureus [1]) [µg/mL] | MIC (Streptococcus pneumoniae) [µg/mL] | MIC (Enterococcus faecium) [µg/mL] | MIC (Staphylococcus aureus [2]) [µg/mL] | ED50 (Staphylococcus aureus [3]) [mg/kg] | IC50 (Escherichia coli) [µM] | ED50 (Staphylococcus aureus [4]) [mg/kg] |
| --- | --- | --- | --- | --- | --- | --- | --- | --- | --- |
| CS[C@H]1O[C@H]([C@H](NC(=O)[C@H]2NC[C@@H]2CCC(F)F)[C@H](C)Cl)[C@H](O)[C@H](O)[C@H]1O | 1 (≈ 2.31 µM) | 2 (≈ 4.62 µM) | > 4 | 0.125 (≈ 0.289 µM) | 0.5 (≈ 1.15 µM) | 1 (≈ 2.31 µM) |  |  |  |
| CCCC[C@H]1CN(CCO)[C@@H]1C(=O)N[C@@H]([C@H]1O[C@H](SC)[C@H](O)[C@@H](O)[C@H]1O)[C@H](C)Cl | 0.5 (≈ 1.1 µM) | 0.5 (≈ 1.1 µM) | > 8 | 0.125 (≈ 0.275 µM) | 0.25 (≈ 0.549 µM) | 0.5 (≈ 1.1 µM) |  |  |  |
| CCCC[C@H]1CN(C)[C@@H]1C(=O)N[C@@H]([C@H]1O[C@H](SC)[C@H](O)[C@@H](O)[C@H]1O)[C@H](C)Cl | 0.125 (≈ 0.294 µM) | 2 (≈ 4.71 µM) | > 4 | 0.5 (≈ 1.18 µM) | 1 (≈ 2.35 µM) | 1 (≈ 2.35 µM) |  |  |  |
| CS[C@H]1O[C@H]([C@H](NC(=O)[C@H]2NC[C@@H]2CCC2CC2)[C@H](C)Cl)[C@H](O)[C@H](O)[C@H]1O | 0.25 (≈ 0.591 µM) | 0.25 (≈ 0.591 µM) | > 4 | 0.125 (≈ 0.296 µM) | 0.125 (≈ 0.296 µM) | 0.25 (≈ 0.591 µM) | 3 | 7.8 |  |
| CS[C@H]1O[C@H]([C@H](NC(=O)[C@H]2NC[C@@H]2CCC(C)C)[C@H](C)Cl)[C@H](O)[C@H](O)[C@H]1O | 0.5 (≈ 1.18 µM) | 0.5 (≈ 1.18 µM) | > 8 | 0.125 (≈ 0.294 µM) | 0.5 (≈ 1.18 µM) | 0.5 (≈ 1.18 µM) |  | 15.5 |  |
| CS[C@H]1O[C@H]([C@H](NC(=O)[C@H]2NC[C@@H]2CCCC2CC2)[C@H](C)Cl)[C@H](O)[C@H](O)[C@H]1O | 0.25 (≈ 0.572 µM) | 0.25 (≈ 0.572 µM) | > 4 | 0.06 (≈ 0.137 µM) | 0.125 (≈ 0.286 µM) | 0.125 (≈ 0.286 µM) | 3.1 | 2.75 |  |
| CCC[C@@H]1C[C@@H](C(=O)N[C@@H]([C@H]2O[C@H](SC)[C@H](O)[C@@H](O)[C@H]2O)[C@H](C)Cl)N(C)C1 [CLINDAMYCIN] |  | 0.25 (≈ 0.588 µM) | > 8 | 0.06 (≈ 0.141 µM) | 0.125 (≈ 0.294 µM) | 0.125 (≈ 0.294 µM) | 2.8 |  | 19.9 |
| CS[C@H]1O[C@H]([C@H](NC(=O)[C@H]2NC[C@@H]2CCC2CCC2)[C@H](C)Cl)[C@H](O)[C@H](O)[C@H]1O | 0.25 (≈ 0.572 µM) | 0.25 (≈ 0.572 µM) | > 4 | 0.125 (≈ 0.286 µM) | 0.25 (≈ 0.572 µM) | 0.25 (≈ 0.572 µM) |  |  |  |
| CCCC[C@H]1CN[C@@H]1C(=O)N[C@@H]([C@H]1O[C@H](SC)[C@H](O)[C@@H](O)[C@H]1O)[C@H](C)Cl | 0.125 (≈ 0.304 µM) | 0.125 (≈ 0.304 µM) | > 8 | 0.06 (≈ 0.146 µM) | 0.125 (≈ 0.304 µM) | 0.125 (≈ 0.304 µM) | 1.1 | 0.36 | 10.8 |
| CCC[C@H]1CN[C@@H]1C(=O)N[C@@H]([C@H]1O[C@H](SC)[C@H](O)[C@@H](O)[C@H]1O)[C@H](C)Cl | 0.5 (≈ 1.26 µM) | 0.5 (≈ 1.26 µM) | > 8 | 0.125 (≈ 0.315 µM) | 0.5 (≈ 1.26 µM) | 0.5 (≈ 1.26 µM) |  | 12.8 |  |
| CCCCC[C@H]1CN[C@@H]1C(=O)N[C@@H]([C@H]1O[C@H](SC)[C@H](O)[C@@H](O)[C@H]1O)[C@H](C)Cl | 0.125 (≈ 0.294 µM) | 0.25 (≈ 0.588 µM) | > 8 | 0.03 (≈ 0.0706 µM) | 0.125 (≈ 0.294 µM) | 0.06 (≈ 0.141 µM) | 1.7 | 1.13 | 28 |
| CS[C@H]1O[C@H]([C@H](NC(=O)[C@H]2NC[C@@H]2CC2CC2)[C@H](C)Cl)[C@H](O)[C@H](O)[C@H]1O | 0.5 (≈ 1.22 µM) | 1 (≈ 2.45 µM) | > 8 | 0.125 (≈ 0.306 µM) | 0.5 (≈ 1.22 µM) | 0.5 (≈ 1.22 µM) |  | 11.1 |  |
| CS[C@H]1O[C@H]([C@H](NC(=O)[C@H]2NC[C@@H]2CCCC2CCC2)[C@H](C)Cl)[C@H](O)[C@H](O)[C@H]1O | 0.25 (≈ 0.554 µM) | 0.06 (≈ 0.133 µM) | > 4 | 0.016 (≈ 0.0355 µM) | 0.06 (≈ 0.133 µM) | 0.03 (≈ 0.0665 µM) | > 10 | 2.44 |  |
